{"source": "paper PMC7804942", "about": "“The amphibian peptide Yodha is virucidal for Zika and dengue viruses” (Scientific Reports, 2021)", "key": {"ZIKV (PRVABC59)": {"test_system": "ZIKV (PRVABC59)", "assay": "ZIKV entry, immunofluorescence of flavivirus E protein in Vero cells", "type": "cell-based, Zika virus", "settings": "ZIKV exposed to peptide, then Vero cells infected for 30 min", "procedure": "Next, we determined whether the observed Yodha peptide-induced decrease in viral titers was due to blocked viral entry. We reasoned that if the peptide directly kills or disrupts the envelope structure of ZIKV, this would prevent virus entry. To test this, we designed an experiment to measure virus entry, by allowing ZIKV to bind cells at 4 °C for 1 h followed by shifting the cells to 37 °C to permit virus entry (Fig. 2A). It has been shown that DENV2 entry occurs within 25 min by early endosome trafficking. Briefly, we exposed ZIKV to Yodha peptide and then allowed the virus to infect Vero cells for 30 min. We then measured viral RNA within the Vero cells by quantitative Real Time-PCR (qRT-PCR) (Fig. 2B). […] Next, we visualized ZIKV entry or lack thereof by immunofluorescence using antibodies against pan flavivirus E protein. […] Next, we sought to determine if Yodha peptide could reduce infectious virus production in cells already infected with ZIKV. Briefly, we infected Vero cells, allowed virus attachment and entry, and then added Yodha peptide to the culture medium at 1, 24, 48, and 72 h post-infection. We collected culture supernatants at 3, 24, 48, and 72 h after ZIKV infection to quantitate ZIKV by FFU assay (Fig. 2E). ZIKV was not detected at 3 h post-infection in both OVA- or Yodha-treated cells. […]"}, "ZIKV (PRVABC59 strain)": {"test_system": "ZIKV (PRVABC59 strain)", "settings": "for reduction of ZIKV: dose escalation", "procedure": "We screened frog skin peptides to identify peptides with potentially virucidal activity against ZIKV infection. Briefly, we incubated individual peptides with ZIKV (PRVABC59 strain) for 2 h and then tested viral viability in a focus-forming assay. […] A significant drawback of host defense peptides is that they can be toxic to mammalian cells. To identify non-toxic candidates among the 12 peptides, we measured the toxicity of each peptide against human erythrocytes. […] The C-terminus of Yodha peptide contains three negatively charged amino acids.\n[…] This incubated mixture was used to infect Vero cells for 1.5 h at 37 °C. Cells and inoculum were overlaid with 2% methylcellulose solution (OptiMEM; Gibco) and incubated for 72 h at 37 °C. Cells were washed with PBS and fixed with a 1:1 methanol/acetone mixture for 30 min. Cells were blocked with 5% milk/PSB at room temperature for 20 min and incubated with primary antibody (anti-flavivirus mouse 4G2[10] antibody) for 2 h at 37 °C. Then, cells were incubated with secondary antibody (HRP-conjugated goat anti-mouse IgG, Cell Signaling) for 1 h at 37 °C. Cells were developed with TrueBlue Peroxidase Substrate (KPL). Plates were read on a CTL-ImmunoSpot S6 Micro analyzer."}, "[1]": {"test_system": "ZIKV DakAr41524 (Senegal 1984)", "assay": "Focus forming assay, ZIKV strain panel", "type": "cell-based, Zika virus", "settings": "50 µM and 100 µM peptide vs OVA control, FFA", "procedure": "(§1) For all our experiments in Fig. 1, we used the PRVABC59 (Puerto Rico 2015) strain of ZIKV. […] The Yodha peptide inhibited all ZIKV strains (Fig. 1H,I).\n(§2) Peptides were incubated with ZIKV (100 FFU/well) for 2 h at 37 °C. This incubated mixture was used to infect Vero cells for 1.5 h at 37 °C. Cells and inoculum were overlaid with 2% methylcellulose solution (OptiMEM; Gibco) and incubated for 72 h at 37 °C. Cells were washed with PBS and fixed with a 1:1 methanol/acetone mixture for 30 min. Cells were blocked with 5% milk/PSB at room temperature for 20 min and incubated with primary antibody (anti-flavivirus mouse 4G2[10] antibody) for 2 h at 37 °C. Then, cells were incubated with secondary antibody (HRP-conjugated goat anti-mouse IgG, Cell Signaling) for 1 h at 37 °C. Cells were developed with TrueBlue Peroxidase Substrate (KPL). Plates were read on a CTL-ImmunoSpot S6 Micro analyzer."}, "[2]": {"test_system": "ZIKV P6-740 (Malaysia, 1966)", "assay": "Focus forming assay, ZIKV strain panel", "type": "cell-based, Zika virus", "settings": "50 µM and 100 µM peptide vs OVA control, FFA", "procedure": "as §1, §2"}, "[3]": {"test_system": "ZIKV MR-766 (Uganda, 1947)", "assay": "Focus forming assay, ZIKV strain panel", "type": "cell-based, Zika virus", "settings": "50 µM and 100 µM peptide vs OVA control, FFA", "procedure": "as §1, §2"}}, "note": "Like-named read-outs stand apart in the source and are kept apart here. Where a SMILES comes first, the peptide text is derived from it.", "data": [{"smiles": "CC[C@H](C)[C@H](NC(=O)[C@@H](NC(=O)CNC(=O)[C@H](CC(C)C)NC(=O)[C@H](Cc1ccccc1)NC(=O)[C@H](Cc1ccccc1)NC(=O)[C@H](CC(C)C)NC(=O)[C@H](CC(C)C)NC(=O)[C@H](CC(C)C)NC(=O)[C@H](CCSC)NC(=O)[C@@H](N)CO)[C@@H](C)O)C(=O)N[C@@H](CO)C(=O)N[C@@H](CC(C)C)C(=O)N[C@@H](CO)C(=O)N[C@@H](CC(C)C)C(=O)N[C@@H](CS)C(=O)N[C@@H](CCC(N)=O)C(=O)N[C@@H](CC(=O)O)C(=O)N[C@@H](CC(=O)O)C(=O)N[C@@H](CCC(N)=O)C(=O)N[C@@H](CCC(=O)O)C(=O)N[C@@H](CCCNC(=N)N)C(=O)N[C@@H](CS)C(=O)O", "note": "[Yodha] (H-SMLLLFFLGTISLSLCQDDQERC-OH; N-terminus and C-terminus assumed)", "values": [{"measurement": "expression of ZIKV envelope in cells (immunofluorescence)", "setting": "ZIKV (PRVABC59)", "result": "decreased expression of ZIKV envelope"}, {"measurement": "reduction of ZIKV", "setting": "ZIKV (PRVABC59 strain); 10 µM peptide, FFA", "result": 35, "unit": "%"}, {"measurement": "reduction of ZIKV", "setting": "ZIKV (PRVABC59 strain); 20 µM peptide, FFA", "result": 50, "unit": "%"}, {"measurement": "Viral titers (FFU) after timed exposure", "setting": "ZIKV (PRVABC59 strain); 20 µM peptide, exposure 5 min, 15 min, 30 min, 1 h and 2 h, all time points", "result": "significantly decreased"}, {"measurement": "reduction of ZIKV", "setting": "ZIKV (PRVABC59 strain); 40 µM peptide, FFA", "result": 65, "unit": "%"}, {"measurement": "inhibition of ZIKV strain", "setting": "ZIKV (PRVABC59 strain); 50 µM and 100 µM peptide vs OVA control, FFA", "result": "inhibited"}, {"measurement": "reduction of ZIKV", "setting": "ZIKV (PRVABC59 strain); 80 µM peptide, FFA", "result": 80, "unit": "%"}, {"measurement": "reduction of ZIKV", "setting": "ZIKV (PRVABC59 strain); 160 µM peptide, FFA", "result": 90, "unit": "%"}, {"measurement": "IC50", "setting": "ZIKV (PRVABC59 strain); PRVABC59 strain, 2 h", "result": 20, "unit": "µM"}, {"measurement": "time of exposure needed to neutralize / destroy ZIKV", "setting": "ZIKV (PRVABC59 strain); exposure of virus to peptide", "result": "≤ 5", "unit": "min"}, {"measurement": "inhibition of ZIKV strain", "setting": "[1]", "result": "inhibited"}, {"measurement": "inhibition of ZIKV strain", "setting": "[2]", "result": "inhibited"}, {"measurement": "inhibition of ZIKV strain", "setting": "[3]", "result": "inhibited"}]}]}
